Among the data in patent US20240190880A1 (THE REGENTS OF THE UNIVERSITY OF MICHIGAN, priority 2021, published 2024) are DC50 values, retold here.

What is called DC50 is the midpoint of the concentration-degradation curve.

The target in one assay is T1, ER (Homo sapiens, UniProt P03372).
T1 construct: host or cells: T47D and MCF7 human breast cancer cells
T1 sequence (P03372 1-595): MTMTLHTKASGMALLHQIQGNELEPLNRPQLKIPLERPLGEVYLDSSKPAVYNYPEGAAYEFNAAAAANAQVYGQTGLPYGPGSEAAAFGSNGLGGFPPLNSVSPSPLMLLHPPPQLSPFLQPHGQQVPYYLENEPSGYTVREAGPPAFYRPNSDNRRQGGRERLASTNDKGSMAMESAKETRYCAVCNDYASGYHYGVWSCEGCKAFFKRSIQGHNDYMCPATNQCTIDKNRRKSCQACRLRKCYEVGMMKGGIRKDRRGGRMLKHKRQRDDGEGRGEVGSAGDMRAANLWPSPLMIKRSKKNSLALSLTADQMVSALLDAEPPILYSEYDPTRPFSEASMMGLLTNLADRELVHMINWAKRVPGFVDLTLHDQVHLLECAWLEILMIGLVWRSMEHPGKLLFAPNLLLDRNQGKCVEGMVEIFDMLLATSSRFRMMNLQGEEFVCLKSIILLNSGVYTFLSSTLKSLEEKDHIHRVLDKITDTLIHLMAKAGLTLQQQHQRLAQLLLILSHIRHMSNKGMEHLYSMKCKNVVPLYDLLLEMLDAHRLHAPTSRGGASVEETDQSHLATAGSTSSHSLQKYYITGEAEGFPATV
Put plainly: ER degradation activity, in-cell western blot analysis in T47D cells. In kind it is cell-based. To be noted: 16 hours, Table A does not say which cell line (T47D or MCF7), read-out: Potency (DC50). In short, it runs like this: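 T47D cells grown in DMEM with 10% FBS were treated with compounds for 16 hours at 0.5% DMSO final. ER was detected by in-cell western using 680/800 near-infrared secondary antibodies. Residual ER is given as percent of untreated and DMSO-treated wells set to 100%.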
Consider `O=C1CCC(N2C(=O)c3cc4c(cc3C2=O)CN(CC(=O)N2CC3(CCN(c5ccc([C@@H]6c7ccc(O)cc7CC[C@@H]6c6ccccc6)cc5)CC3)C2)C4)C(=O)N1` (stereo partly drawn) [E 148, 2-(2,6-dioxopiperidin-3-yl)-6-(2-(7-(4-((1R,2S)-6-hydroxy-2-phenyl-1,2,3,4-tetrahydronaphthalen-1-yl)phenyl)-2,7-diazaspiro[3.5]nonan-2-yl)-2-oxoethyl)-6,7-dihydropyrrolo[3,4-f]isoindole-1,3(2H,5H)-dione], for which the DC50 is < 10 nM. In the case of `C[C@@H]1Cc2c([nH]c3ccccc23)[C@@H](c2c(F)cc(-c3ncc(C(=O)N4CCC(N5Cc6cc7c(cc6C5)C(=O)N(C5CCC(=O)NC5=O)C7=O)CC4)cn3)cc2F)N1CC(F)F` (stereo partly drawn) [E 346, 6-(1-(2-(4-((1R,3R)-2-(2,2-difluoroethyl)-3-methyl-2,3,4,9-tetrahydro-1H-pyrido[3,4-b]indol-1-yl)-3,5-difluorophenyl)pyrimidine-5-carbonyl)piperidin-4-yl)-2-(2,6-dioxopiperidin-3-yl)-6,7-dihydropyrrolo[3,4-f]isoindole-1,3(2H,5H)-dione], the DC50 was < 10 nM. On the same count and under the same terms, under `C[C@@H]1Cc2c([nH]c3ccccc23)[C@@H](c2c(F)cc(N3CCC4(CN(C(=O)CN5Cc6cc7c(cc6C5)C(=O)N(C5CCC(=O)NC5=O)C7=O)C4)C3)cc2F)N1CC(F)F` (stereo partly drawn) [E 83, 6-(2-(6-(4-((1R,3R)-2-(2,2-difluoroethyl)-3-methyl-2,3,4,9-tetrahydro-1H-pyrido[3,4-b]indol-1-yl)-3,5-difluorophenyl)-2,6-diazaspiro[3.4]octan-2-yl)-2-oxoethyl)-2-(2,6-dioxopiperidin-3-yl)-6,7-dihydropyrrolo[3,4-f]isoindole-1,3(2H,5H)-dione] stands < 10 nM; under `O=C1CCC(N2C(=O)c3cc4c(cc3C2=O)CN(C(=O)C2CCN(CC3CN(c5ccc([C@@H]6c7ccc(O)cc7CC[C@@H]6c6ccccc6)cc5)C3)CC2)C4)C(=O)N1` (stereo partly drawn) [E 295, 2-(2,6-dioxopiperidin-3-yl)-6-(1-((1-(4-((1R,2S)-6-hydroxy-2-phenyl-1,2,3,4-tetrahydronaphthalen-1-yl)phenyl)azetidin-3-yl)methyl)piperidine-4-carbonyl)-6,7-dihydropyrrolo[3,4-f]isoindole-1,3(2H,5H)-dione], > 100 nM; under `O=C1CCC(N2C(=O)c3cc4c(cc3C2=O)CN(CC2CCN(C(=O)C3CCN(c5ccc([C@@H]6c7ccc(O)cc7CC[C@@H]6c6ccccc6)cc5)CC3)CC2)C4)C(=O)N1` (mixture of isomers) [E 14, Rac-2-(2,6-dioxopiperidin-3-yl)-6-((1-(1-(4-((1R,2S)-6-hydroxy-2-phenyl-1,2,3,4-tetrahydronaphthalen-1-yl)phenyl)piperidine-4-carbonyl)piperidin-4-yl)methyl)-6,7-dihydropyrrolo[3,4-f]isoindole-1,3(2H,5H)-dione], 10 to 100 nM. Same read-out and setting: under `C[C@@H]1Cc2c([nH]c3ccccc23)[C@@H](c2c(F)cc(N3CC(CC(=O)N4CC(N5Cc6cc7c(cc6C5)C(=O)N(C5CCC(=O)NC5=O)C7)C4)C3)cc2F)N1CC(F)F` (stereo partly drawn) [E 103, 3-(6-(1-(2-(1-(4-((1R,3R)-2-(2,2-difluoroethyl)-3-methyl-2,3,4,9-tetrahydro-1H-pyrido[3,4-b]indol-1-yl)-3,5-difluorophenyl)azetidin-3-yl)acetyl)azetidin-3-yl)-1-oxo-3,5,6,7-tetrahydropyrrolo[3,4-f]isoindol-2(1H)-yl)piperidine-2,6-dione] stands 10 to 100 nM; under `O=C1CCC(N2C(=O)c3cc4c(cc3C2=O)CN(C(=O)CN2CCC3(CC2)CCN(c2ccc([C@@H]5c6ccc(O)cc6CC[C@@H]5c5ccccc5)cc2)C3)C4)C(=O)N1` (mixture of isomers) [E 141, Rac-2-(2,6-dioxopiperidin-3-yl)-6-(2-(2-(4-((1R,2S)-6-hydroxy-2-phenyl-1,2,3,4-tetrahydronaphthalen-1-yl)phenyl)-2,8-diazaspiro[4.5]decan-8-yl)acetyl)-6,7-dihydropyrrolo[3,4-f]isoindole-1,3(2H,5H)-dione], > 100 nM; under `O=C1CCC(N2C(=O)c3cc4c(cc3C2=O)CN(CC(=O)N2CCC3(CC2)CCN(c2ccc(C(=C(CCCl)c5ccc(F)cc5)c5ccc(O)cc5)cc2)CC3)CC4)C(=O)N1` (stereo not shown) [E 193], 10 to 100 nM. Still for that read-out and setting: under `C[C@@H]1Cc2c([nH]c3ccccc23)[C@@H](c2c(F)cc(N3CCC(N4CCN(CC(=O)N5Cc6cc7c(cc6C5)C(=O)N(C5CCC(=O)NC5=O)C7=O)CC4)CC3)cc2F)N1CC(F)F` (stereo partly drawn) [E 95, 6-(2-(4-(1-(4-((1R,3R)-2-(2,2-difluoroethyl)-3-methyl-2,3,4,9-tetrahydro-1H-pyrido[3,4-b]indol-1-yl)-3,5-difluorophenyl)piperidin-4-yl)piperazin-1-yl)acetyl)-2-(2,6-dioxopiperidin-3-yl)-6,7-dihydropyrrolo[3,4-f]isoindole-1,3(2H,5H)-dione] stands < 10 nM. As to `O=C1CCC(N2C(=O)c3cc4c(cc3C2=O)CN(CC2CN(C(=O)C3CN(c5ccc([C@@H]6c7ccc(O)cc7CC[C@@H]6c6ccccc6)cc5)C3)C2)C4)C(=O)N1` (mixture of isomers) [E 158, Rac-2-(2,6-dioxopiperidin-3-yl)-6-((1-(1-(4-((1R,2S)-6-hydroxy-2-phenyl-1,2,3,4-tetrahydronaphthalen-1-yl)phenyl)azetidine-3-carbonyl)azetidin-3-yl)methyl)-6,7-dihydropyrrolo[3,4-f]isoindole-1,3(2H,5H)-dione], the DC50 was > 100 nM. Still for that read-out and setting: under `O=C1CCC(N2C(=O)c3cc4c(cc3C2=O)CCN(CC(=O)N2CCC3(CC2)CCN(c2ccc([C@@H]5c6ccc(O)cc6CC[C@@H]5c5ccc(F)cc5)cc2)CC3)CC4)C(=O)N1` (stereo partly drawn) [E 183, 2-(2,6-dioxopiperidin-3-yl)-7-(2-(9-(4-((1R,2S)-2-(4-fluorophenyl)-6-hydroxy-1,2,3,4-tetrahydronaphthalen-1-yl)phenyl)-3,9-diazaspiro[5.5]undecan-3-yl)-2-oxoethyl)-6,7,8,9-tetrahydroazepino[4,5-f]isoindole-1,3(2H,5H)-dione] stands > 100 nM; under `O=C1CCC(N2C(=O)c3cc4c(cc3C2=O)CN(C2CCN(CC3CCN(c5ccc([C@@H]6c7ccc(O)cc7CC[C@@H]6c6ccc(F)cc6)cc5)CC3)CC2)C4)C(=O)N1` (stereo partly drawn) [E 273, 2-(2,6-dioxopiperidin-3-yl)-6-(1-((1-(4-((1R,2S)-2-(4-fluorophenyl)-6-hydroxy-1,2,3,4-tetrahydronaphthalen-1-yl)phenyl)piperidin-4-yl)methyl)piperidin-4-yl)-6,7-dihydropyrrolo[3,4-f]isoindole-1,3(2H,5H)-dione], 10 to 100 nM. Same read-out and setting: under `O=C1CCC(N2C(=O)c3cc4c(cc3C2=O)CN(CC2CCN(C(=O)C3CN(c5ccc([C@@H]6c7ccc(O)cc7CC[C@@H]6c6ccccc6)cc5)C3)CC2)C4)C(=O)N1` (stereo partly drawn) [E 201, 2-(2,6-dioxopiperidin-3-yl)-6-((1-(1-(4-((1R,2S)-6-hydroxy-2-phenyl-1,2,3,4-tetrahydronaphthalen-1-yl)phenyl)azetidine-3-carbonyl)piperidin-4-yl)methyl)-6,7-dihydropyrrolo[3,4-f]isoindole-1,3(2H,5H)-dione] stands > 100 nM; under `O=C1CCC(N2C(=O)c3cc4c(cc3C2=O)CN(CC2CCN(C(=O)C3CCN(c5ccc([C@@H]6c7ccc(O)cc7CC[C@@H]6c6ccccc6)cc5)CC3)CC2)C4)C(=O)N1` (stereo partly drawn) [E 204, 2-(2,6-dioxopiperidin-3-yl)-6-((1-(1-(4-((1R,2S)-6-hydroxy-2-phenyl-1,2,3,4-tetrahydronaphthalen-1-yl)phenyl)piperidine-4-carbonyl)piperidin-4-yl)methyl)-6,7-dihydropyrrolo[3,4-f]isoindole-1,3(2H,5H)-dione], 10 to 100 nM.

Still in this assay, the particulars now being: compounds 16 hours, Table A does not say whether T47D or MCF7, read-out: Potency (DC50).
Regarding `C[C@@H]1Cc2cc(O)ccc2[C@H](c2c(F)cc(C(=O)N3CC4(CCN(C(=O)CN5Cc6cc7c(cc6C5)C(=O)N(C5CCC(=O)NC5=O)C7=O)CC4)C3)cc2F)N1CC(F)F` (stereo partly drawn) [E 458, 6-(2-(2-(4-((1R,3R)-2-(2,2-difluoroethyl)-6-hydroxy-3-methyl-1,2,3,4-tetrahydroisoquinolin-1-yl)-3,5-difluorobenzoyl)-2,7-diazaspiro[3.5]nonan-7-yl)-2-oxoethyl)-2-(2,6-dioxopiperidin-3-yl)-6,7-dihydropyrrolo[3,4-f]isoindole-1,3(2H,5H)-dione], the half-maximal degradation concentration (DC50) is > 100 nM. As to `C[C@@H]1Cc2c([nH]c3ccccc23)[C@@H](c2c(F)cc(C3CCC4(CC3)CCN(C(=O)CN3Cc5cc6c(cc5C3)C(=O)N(C3CCC(=O)NC3=O)C6=O)CC4)cc2F)N1CC(F)F` (stereo partly drawn) [E 480, 6-(2-(9-(4-((1R,3R)-2-(2,2-difluoroethyl)-3-methyl-2,3,4,9-tetrahydro-1H-pyrido[3,4-b]indol-1-yl)-3,5-difluorophenyl)-3-azaspiro[5.5]undecan-3-yl)-2-oxoethyl)-2-(2,6-dioxopiperidin-3-yl)-6,7-dihydropyrrolo[3,4-f]isoindole-1,3(2H,5H)-dione], the DC50 lay in the range of 10 to 100 nM.
